# Measured values taken from patent US20040156854A1, “Methods for the identification, assessment, and treatment of patients with proteasome inhibition therapy” (priority 2002, published 2004).
# Assays:
# [1] = test system: relapsed/refractory multiple myeloma; assay: Open-label Phase II study of bortezomib in relapsed, refractory myeloma: IRC confirmed response (Blade criteria); type: in vivo, human
# Description: An Open-Label Phase II Study of Bortezomib in Patients with Myeloma Who Have Relapsed Following Front-Line Therapy and are Refractory to their Most Recent Therapy
# (§1) A multicenter, open-label, non-randomized Phase 2 trial was conducted, wherein enrolled were patients with relapsed myeloma that was refractory to therapy. Patients were treated with 1.3 mg of bortezomib per square meter of body surface area, twice weekly for two weeks, followed by one week without treatment, for up to eight cycles (24 weeks).
# (§2) Statistical analysis focused on the need to estimate response rates within specified limits of accuracy in order to determine if either of the two dose levels 1.0 or 1.3 mg/m^2/dose alone or in combination with dexamethasone are sufficiently efficacious to warrant further clinical study. This study was noncomparative in nature; therefore efficacy comparisons between the two doses of bortezomib were not performed. In addition, this study provided safety data that helped to characterize the potential toxicity of treatment at the two evaluated dose levels for up to eight cycles of therapy.
# A formal statistical analysis plan was developed and finalized prior to database lock. The primary efficacy analyses were performed on the intent-to-treat (ITT) population. The primary efficacy analysis were performed on the rates of responders, where a responder was defined as a CR, PR, or MR using the criteria prospectively established in Table C. Two-sided 90% confidence limits on proportions of responders in each dose group were established, corresponding to a 95% one-sided lower limit.
# Based on the criteria reported by Kraut et al., J. Clin. Oncol. 16(2): 589-592 (1998) and Blade et al., Br. J. Haematol. 102(5): 1115-1123 (1998). In patients with CR, bone marrow was analyzed using PCR for verification of CR at the molecular level.
# The Independent Review Committee (IRC) evaluation of confirmed response to treatment with bortezomib alone is provided in Table D; further categorization of response for those patients who experienced partial remission is provided in Table E. This independent panel panel of three medical oncologists reviewed all data for 193 evaluable patients in the trial and assigned response using Blade criteria (Table C). […] An additional 46 (24%) of patients had evidence for stable disease (NC, no change) in response to bortezomib alone, which reflects an improvement in status for these patients who were progressing at the time of study entry. Based on the IRC assessment, 38 (20%) of the 193 patients had progressive disease and an additional 42 patients (22%) were considered not evaluable for response by the IRC. […] See Richardson PG, et al., New Eng. J. Med.; 348: 2609-17 (2003).
# [2] = parameters: species or system human; conditions: in vivo
# Description: as §1, §2
# Over 80% of the 78 patients completed 2 or more cycles of treatment, 62% completed 4 or more cycles, and 27% completed 8 cycles.
# [3] = test system: OVCAR-3 and RPMI8226 resistant sub-clones; assay: Bortezomib resistant tumor cell lines generated by repeated dosing: resistance to bortezomib; type: cell-based; conditions: sub-clones selected after dosing with 3-5 times the LD50; vs parental lines
# Description: In order to better understand the specific mechanism(s) by which proteasome inhibitors exert their apoptotic effects, as well as to elucidate mechanisms by which those effects may be subverted, bortezomib resistant tumor cell lines were generated. […] The drug was then removed and surviving cells were allowed to recover for 24 to 72 hours. This process was then repeated for multiple rounds with the bortezomib dose doubled each time. After cells had been dosed with 3-5 times the LD50, several individual cell lines were sub-cloned from single cell colonies. […] This strategy was applied to both ovarian tumor cell lines (OVCAR-3) and myeloma tumor cell lines (RPMI8226) and multiple sub-clones were characterized. The resistant cell lines were then subject to gene expression profiling using the Affymetrix U133 microarray. A comparison of genes differentially expressed in sensitive parental (S) versus resistant sub-clones (R) highlighted several genes that were also identified in analysis of sensitive and resistant myeloma biopsies. The number identified in Table 8 corresponds to the marker number identification in Table 1. Such results not only highlight a potential relationship between expression of these genes and bortezomib sensitivity, but also support the validity of methods used to define response genes in clinical samples.
# [4] = test system: human tumor xenograft models; conditions: cited from earlier work
# [5] = IRC assessment, bortezomib alone, N = 193
# [6] = IRC confirmed, bortezomib alone, N = 193
smiles,measurement,setting,value
"CC(C)C[C@H](NC(=O)[C@H](Cc1ccccc1)NC(=O)c1cnccn1)B(O)O [bortezomib, N-pyrazinecarbonyl-L-phenylalanine-L-leucineboronic acid]",CR+PR rate,"[1]; 202 patients enrolled, PS-341 alone, prior to added dexamethasone",27%
same,overall response rate to PS-341 alone,"[1]; 202 patients enrolled, prior to any patients receiving added dexamethasone",35%
same,"Not Evaluable for response, number of patients",[1]; [5],42 patients
same,"Not Evaluable for response, percent of patients",[1]; [5],22%
same,"Complete + Partial + Minor Responses, number of patients","[1]; IRC confirmed, bortezomib alone, 1.3 mg/m2 twice weekly, N = 193",67 patients
same,"Complete + Near Complete Remissions (NCR), number of patients",[1]; [6],19 patients
same,"Complete + Near Complete Remissions (NCR), percent of patients",[1]; [6],10%
same,"Complete + Partial + Minor Responses, percent of patients",[1]; [6],35%
same,"Complete + Partial Remissions, number of patients",[1]; [6],53 patients
same,"Complete + Partial Remissions, percent of patients",[1]; [6],27%
same,"Complete Remission (CR), number of patients",[1]; [6],19 patients
same,"Complete Remission (CR), percent of patients",[1]; [6],4%
same,"Minor Response (MR), number of patients",[1]; [6],14 patients
same,"Minor Response (MR), percent of patients",[1]; [6],5%
same,"No Change (stable disease), number of patients",[1]; [6],46 patients
same,"No Change (stable disease), percent of patients",[1]; [6],27%
same,"Partial Remission (PR), number of patients",[1]; [6],34 patients
same,"Partial Remission (PR), percent of patients",[1]; [6],23%
same,"Progressive Disease, number of patients",[1]; [6],38 patients
same,"Progressive Disease, percent of patients",[1]; [6],20%
same,tolerability of the dose,[2],well tolerated
same,resistance to bortezomib of resistant sub-clones,[3],5-10 fold
same,antitumor activity,[4],demonstrated antitumor activity
